Read-outs that look alike come from different tables or passages of the source.
What was measured:
CYP3A4/5 = CYP3A4/5 enzyme activity induction in hepatocyte cultures
MATE1 = molecular target: T1, MATE1 (Homo sapiens, UniProt Q96FL8); assay: in vitro
T1 sequence (Q96FL8 1-570): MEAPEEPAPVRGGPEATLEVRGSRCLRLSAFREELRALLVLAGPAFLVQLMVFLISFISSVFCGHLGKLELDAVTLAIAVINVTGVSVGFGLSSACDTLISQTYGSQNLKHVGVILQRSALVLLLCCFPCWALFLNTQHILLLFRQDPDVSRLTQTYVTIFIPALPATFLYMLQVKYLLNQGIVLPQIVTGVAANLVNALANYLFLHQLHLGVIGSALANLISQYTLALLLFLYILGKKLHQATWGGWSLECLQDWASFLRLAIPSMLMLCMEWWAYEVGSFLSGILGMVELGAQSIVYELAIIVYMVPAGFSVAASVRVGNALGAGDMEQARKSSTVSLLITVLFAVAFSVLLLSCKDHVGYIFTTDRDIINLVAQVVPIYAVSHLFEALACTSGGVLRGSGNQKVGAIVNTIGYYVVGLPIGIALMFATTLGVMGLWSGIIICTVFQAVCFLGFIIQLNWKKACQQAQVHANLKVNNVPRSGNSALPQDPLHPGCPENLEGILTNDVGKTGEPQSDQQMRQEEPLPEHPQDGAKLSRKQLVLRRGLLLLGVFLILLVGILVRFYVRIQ

P-gp = P-gp (Homo sapiens, UniProt P08183); assay: in vitro
hrCYP2B6 = molecular target: T2, hrCYP2B6 (Homo sapiens, UniProt P20813); assay: CYP reaction phenotyping with hrCYP2B6 (% remaining); assay type: in vitro ADME; conditions: for % Remaining of TA: hrCYP2B6 20 pmol CYP/mL, 5 μM TA, PB and TUDCA co-incubated
T2 sequence (P20813 1-491): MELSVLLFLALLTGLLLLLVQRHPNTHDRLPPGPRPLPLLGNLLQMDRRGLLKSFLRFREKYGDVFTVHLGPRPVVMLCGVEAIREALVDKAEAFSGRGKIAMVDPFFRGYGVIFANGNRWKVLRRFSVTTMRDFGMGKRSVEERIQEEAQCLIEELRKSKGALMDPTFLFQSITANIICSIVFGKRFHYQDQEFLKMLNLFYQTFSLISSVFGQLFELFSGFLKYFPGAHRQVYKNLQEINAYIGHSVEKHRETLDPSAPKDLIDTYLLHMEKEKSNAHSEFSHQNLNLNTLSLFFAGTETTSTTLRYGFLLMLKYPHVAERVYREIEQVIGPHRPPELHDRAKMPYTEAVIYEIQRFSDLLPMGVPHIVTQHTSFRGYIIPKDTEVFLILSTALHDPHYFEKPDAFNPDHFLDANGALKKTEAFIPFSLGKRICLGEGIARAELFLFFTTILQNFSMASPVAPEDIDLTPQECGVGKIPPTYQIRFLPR

[1] = Chemical stability in HBSSg_7.4 and HBSS_8.5; assay type: physicochemical; conditions: for Chemical stability in the tested matrices: 0.5 μM, 37° C., HBSSg_7.4 and HBSS_8.5
Procedure: At pre-determined time points, an equal volume of acetonitrile with internal standard was added to each vial, and the mixture was placed at 4° C. until the end of the assay. The peak areas of the test article and IS of each sample were determined by LC-MS/MS, and the ratios of the peak areas (analyte:IS) were calculated.

hrCYP2C8 = molecular target: T3, hrCYP2C8 (Homo sapiens, UniProt P10632); assay: CYP reaction phenotyping with hrCYP2C8 (% remaining); assay type: in vitro ADME; conditions: for % Remaining of TA: hrCYP2C8 20 pmol CYP/mL, 5 μM TA, PB and TUDCA co-incubated
T3 sequence (P10632 1-490): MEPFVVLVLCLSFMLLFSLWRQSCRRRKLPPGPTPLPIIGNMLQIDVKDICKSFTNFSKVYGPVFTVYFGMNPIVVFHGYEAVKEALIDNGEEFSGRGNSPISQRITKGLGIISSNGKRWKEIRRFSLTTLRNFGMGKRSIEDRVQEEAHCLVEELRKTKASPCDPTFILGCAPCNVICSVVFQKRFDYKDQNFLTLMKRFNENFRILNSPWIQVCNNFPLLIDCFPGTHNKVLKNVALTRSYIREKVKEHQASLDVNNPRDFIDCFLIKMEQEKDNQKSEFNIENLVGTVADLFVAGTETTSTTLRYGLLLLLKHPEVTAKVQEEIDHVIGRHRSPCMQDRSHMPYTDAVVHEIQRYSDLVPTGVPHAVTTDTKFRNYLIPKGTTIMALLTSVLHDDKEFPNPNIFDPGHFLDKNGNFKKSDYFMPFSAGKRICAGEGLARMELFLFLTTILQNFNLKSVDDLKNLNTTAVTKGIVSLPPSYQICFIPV

[2] = molecular target: CYPs in human liver microsomes (HLM) (Homo sapiens, UniProt P11712); conditions: 5 min
[3] = system: CYPs in human liver microsomes (HLM)
[4] = molecular target: CYPs in human liver microsomes (HLM) (Homo sapiens, UniProt P10635); conditions: 5 min
[5] = molecular target: T4, CYPs in human liver microsomes (HLM) (Homo sapiens, UniProt P20813); conditions: 1 h
T4 sequence (P20813 1-491): T2 sequence (P20813 1-491)

[6] = molecular target: T4, CYPs in human liver microsomes (HLM); assay: CYP reaction phenotyping in HLM with chemical inhibitors (% remaining); conditions: +NADPH +thio-TEPA (CYP2B6)
[7] = molecular target: T5, CYPs in human liver microsomes (HLM) (Homo sapiens, UniProt P10632); assay: as above; conditions: +NADPH +montelukast (CYP2C8)
T5 sequence (P10632 1-490): T3 sequence (P10632 1-490)

[8] = HBSSg_7.4, Overnight (~1020-[…])
[9] = HBSSg_8.5, Overnight (~1020-[…])

Sequence of P-gp (P08183 whole entry): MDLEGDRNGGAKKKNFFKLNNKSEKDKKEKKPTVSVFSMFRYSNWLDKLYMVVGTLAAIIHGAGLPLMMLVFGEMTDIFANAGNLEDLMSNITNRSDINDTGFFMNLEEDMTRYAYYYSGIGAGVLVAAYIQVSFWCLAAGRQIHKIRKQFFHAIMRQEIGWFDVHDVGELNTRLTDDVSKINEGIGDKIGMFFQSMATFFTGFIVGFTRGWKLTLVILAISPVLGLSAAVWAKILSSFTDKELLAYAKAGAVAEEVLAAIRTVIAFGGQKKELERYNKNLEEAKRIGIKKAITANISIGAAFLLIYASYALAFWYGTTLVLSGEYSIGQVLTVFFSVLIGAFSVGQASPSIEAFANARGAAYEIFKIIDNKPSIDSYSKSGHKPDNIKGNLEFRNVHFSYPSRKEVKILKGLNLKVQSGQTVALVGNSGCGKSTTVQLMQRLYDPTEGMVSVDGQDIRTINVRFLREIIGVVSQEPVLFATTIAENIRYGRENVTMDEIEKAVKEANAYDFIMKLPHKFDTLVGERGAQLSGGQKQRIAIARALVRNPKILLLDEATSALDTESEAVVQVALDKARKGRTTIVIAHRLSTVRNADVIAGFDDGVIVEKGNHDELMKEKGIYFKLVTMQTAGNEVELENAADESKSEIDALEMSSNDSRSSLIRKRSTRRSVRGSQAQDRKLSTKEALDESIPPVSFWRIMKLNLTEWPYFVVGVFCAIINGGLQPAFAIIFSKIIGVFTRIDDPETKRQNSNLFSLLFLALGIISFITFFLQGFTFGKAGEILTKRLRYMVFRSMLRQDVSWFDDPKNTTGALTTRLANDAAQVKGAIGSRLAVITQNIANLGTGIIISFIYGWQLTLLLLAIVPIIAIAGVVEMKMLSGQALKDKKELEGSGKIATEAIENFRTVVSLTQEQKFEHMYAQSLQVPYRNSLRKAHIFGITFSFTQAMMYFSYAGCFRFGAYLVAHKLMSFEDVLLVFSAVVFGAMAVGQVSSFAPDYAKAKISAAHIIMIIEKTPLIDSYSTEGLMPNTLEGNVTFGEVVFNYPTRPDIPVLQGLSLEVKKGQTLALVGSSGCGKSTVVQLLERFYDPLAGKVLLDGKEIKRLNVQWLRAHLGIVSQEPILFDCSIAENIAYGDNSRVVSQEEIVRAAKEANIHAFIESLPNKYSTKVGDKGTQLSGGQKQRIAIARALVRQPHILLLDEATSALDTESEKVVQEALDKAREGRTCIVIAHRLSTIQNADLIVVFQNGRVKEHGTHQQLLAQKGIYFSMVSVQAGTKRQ
Sequence of CYPs in human liver microsomes (HLM) (Homo sapiens, UniProt P10635) (P10635 whole entry): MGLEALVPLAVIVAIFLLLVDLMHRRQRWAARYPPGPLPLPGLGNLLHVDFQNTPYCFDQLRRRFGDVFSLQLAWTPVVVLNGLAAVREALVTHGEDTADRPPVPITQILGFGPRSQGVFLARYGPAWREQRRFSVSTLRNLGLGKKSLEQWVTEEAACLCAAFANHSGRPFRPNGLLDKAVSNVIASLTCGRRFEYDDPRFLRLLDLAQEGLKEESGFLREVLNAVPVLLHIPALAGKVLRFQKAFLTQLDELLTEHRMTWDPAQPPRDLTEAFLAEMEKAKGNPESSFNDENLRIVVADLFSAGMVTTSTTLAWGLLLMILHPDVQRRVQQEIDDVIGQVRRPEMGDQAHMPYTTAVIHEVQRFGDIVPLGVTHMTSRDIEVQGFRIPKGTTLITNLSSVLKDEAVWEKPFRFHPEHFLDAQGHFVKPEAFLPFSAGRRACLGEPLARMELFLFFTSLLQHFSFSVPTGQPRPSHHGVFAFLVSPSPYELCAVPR
Sequence of CYPs in human liver microsomes (HLM) (Homo sapiens, UniProt P11712) (P11712 whole entry): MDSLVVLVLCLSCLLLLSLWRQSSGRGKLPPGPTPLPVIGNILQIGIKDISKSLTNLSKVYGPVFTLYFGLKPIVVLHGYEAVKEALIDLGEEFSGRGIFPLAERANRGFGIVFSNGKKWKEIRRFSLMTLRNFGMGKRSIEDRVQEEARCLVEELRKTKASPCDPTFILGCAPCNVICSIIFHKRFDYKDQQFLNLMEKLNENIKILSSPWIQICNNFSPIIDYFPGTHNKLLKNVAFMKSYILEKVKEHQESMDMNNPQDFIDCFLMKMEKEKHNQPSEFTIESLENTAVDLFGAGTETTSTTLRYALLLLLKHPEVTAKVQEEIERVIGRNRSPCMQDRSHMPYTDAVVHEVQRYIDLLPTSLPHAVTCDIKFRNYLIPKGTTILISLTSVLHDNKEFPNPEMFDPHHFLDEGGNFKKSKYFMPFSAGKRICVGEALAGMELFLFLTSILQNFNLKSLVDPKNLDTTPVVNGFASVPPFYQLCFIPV

Which results are given for `C[C@H](CCC(=O)NCC(=O)O)[C@H]1CC[C@H]2[C@@H]3[C@@H](O)C[C@@H]4C[C@H](O)CC[C@]4(C)[C@H]3CC[C@]12C` [Glycoursodeoxycholic acid, glycoursodeoxycholic acid]?
Maximum fold induction of CYP3A4/5 activity (CYP3A4/5; Donor 1): 1.34 fold; Maximum fold induction of CYP3A4/5 activity (CYP3A4/5; Donor 2): 1.98 fold; Maximum fold induction of CYP3A4/5 activity (CYP3A4/5; Donor 3): 2.70 fold; potency estimated from few doses (MATE1): > 100 µM; potency estimated from few doses (P-gp; Caco-2 cells, probe 3H-digoxin): < 10 µM

Which “% remaining after 60 minutes” value (hrCYP2B6; human, 1 h, 5 µM, pH 7.4) does the source give for `O=C(O)CCCc1ccccc1` [PB, sodium phenylbutyrate] here?
The value was “greater than 90%”.

And the “Chemical stability in the tested matrices” value [1]?
The value was “appeared to be stable”.

And the “Percent of the 0-minute value” ([1]; HBSSg_7.4, 0 minutes)?
The value was 100%.

And the “Percent of the 0-minute value” ([1]; HBSSg_7.4, 120 minutes)?
Its value is 99.3%.

What about the “Percent of the 0-minute value” [1, 8] of the same compound?
Its value is 105%.

And the “Percent of the 0-minute value” ([1]; HBSSg_8.5, 0 minutes)?
The value was 100%.

And the “Percent of the 0-minute value” ([1]; HBSSg_8.5, 120 minutes)?
Its value is 79.4%.

And the “Percent of the 0-minute value” [1, 9]?
The value was 98.6%.

And the potency estimated from few doses (MATE1)?
Its potency estimated from few doses is under 250 µM.

And the “% remaining after 60 minutes” value (hrCYP2C8; human, 1 h, 5 µM, pH 7.4)?
The value was “greater than 90%”.

For `O=C(O)Cc1ccccc1` [Phenylacetic acid, phenylacetic acid], which potency estimated from few doses (P-gp) is on record?
Its potency estimated from few doses is over 7500 µM.

What does the source list for tauroursodeoxycholic acid [TUDCA]?
% Remaining of TA (hrCYP2B6; 0 min): 100%; % Remaining of TA (hrCYP2B6; 5 min): 97.6%; % Remaining of TA (hrCYP2B6; 10 min): 97.0%; % Remaining of TA (hrCYP2B6; 20 min): 99.3%; % Remaining of TA (hrCYP2B6; 30 min): 99.7%; % Remaining of TA (hrCYP2B6; 60 min): 101%; Chemical stability in the tested matrices [1]: appeared to be stable; Percent of the 0-minute value ([1]; HBSSg_7.4, 0 minutes): 100%; Percent of the 0-minute value ([1]; HBSSg_7.4, 120 minutes): 101%; Percent of the 0-minute value [1, 8]: 95.3%; Percent of the 0-minute value ([1]; HBSSg_8.5, 0 minutes): 100%; Percent of the 0-minute value ([1]; HBSSg_8.5, 120 minutes): 90.8%; Percent of the 0-minute value [1, 9]: 96.5%; % remaining of TA in HLM [2]: 102%; % remaining of TA in HLM ([3]; 5 min): 103%; % remaining of TA in HLM ([3]; 1 h): 105%; % remaining of TA in HLM [4]: 101%; % remaining of TA in HLM [5]: 102%; % Remaining of TA (hrCYP2C8; 0 min): 100%; % Remaining of TA (hrCYP2C8; 5 min): 97.1%; % Remaining of TA (hrCYP2C8; 10 min): 99.3%; % Remaining of TA (hrCYP2C8; 20 min): 101%; % Remaining of TA (hrCYP2C8; 30 min): 101%; % Remaining of TA (hrCYP2C8; 60 min): 99.8%; % remaining of TA in HLM ([6]; 5 min): 112%; % remaining of TA in HLM ([6]; 10 min): 112%; % remaining of TA in HLM ([6]; 20 min): 122%; % remaining of TA in HLM ([6]; 30 min): 116%; % remaining of TA in HLM ([7]; 5 min): 101%; % remaining of TA in HLM ([7]; 10 min): 103%; % remaining of TA in HLM ([7]; 20 min): 95.5%; % remaining of TA in HLM ([7]; 30 min): 105%; % remaining of TA in HLM ([7]; 60 min): 97.7%

Source: patent publication US20240139211A1, “METHODS AND COMPOSITIONS FOR TREATING AMYOTROPHIC LATERAL SCLEROSIS” (Amylyx Pharmaceuticals, Inc., priority 2022, published 2024)
